Key:
Test in all cases: Kinase Profiler 10 μM panel
Hck(h) = Hck(h) (Homo sapiens (Human), UniProt P08631)
Experimental: (§1) In vitro kinase assays were conducted using Kinase Profiler services provided by Eurofins. The experimental method was as follows: the small molecule compound to be tested (0.001-10 μM), the protein kinase to be tested were incubated with a buffer containing substrate, 10 mM magnesium acetate, and [γ-^33P-ATP], the reaction was started by adding Mg\TPmix, after incubation for a period of time at room temperature, a 3% phosphate solution was added to the buffer to stop the reaction. Subsequently, 10 μL of the reaction mixture was quantitatively pipetted onto P30 filter paper, which was washed three times with 75 mM phosphate solution and then once with methanol. The P30 filter paper was air-dried and scintillation fluid was added for scintillation counting.

WNK1(h) = WNK1(h) (Homo sapiens (Human), UniProt Q9H4A3)
Experimental: as §1

Fgr(h) = Fgr(h) (Homo sapiens (Human), UniProt P09769)
Experimental: as §1

SGK2(h) = SGK2(h) (Homo sapiens (Human), UniProt Q9HBY8)
Experimental: as §1

Pyk2(h) = Pyk2(h) (Homo sapiens (Human), UniProt Q14289)
Experimental: as §1

Src(1-530)(h) = Src(1-530)(h) (Homo sapiens (Human), UniProt P12931)
Experimental: as §1

CK2α1(h) = CK2α1(h) (Homo sapiens (Human), UniProt P68400)
Experimental: as §1

B-Raf(V599E)(h) = B-Raf(V599E)(h) (Homo sapiens (Human), UniProt P15056, V600E)
Experimental: as §1

ULK3(h) = ULK3(h) (Homo sapiens (Human), UniProt Q6PHR2)
ULK3(h), sequence (Q6PHR2 whole entry): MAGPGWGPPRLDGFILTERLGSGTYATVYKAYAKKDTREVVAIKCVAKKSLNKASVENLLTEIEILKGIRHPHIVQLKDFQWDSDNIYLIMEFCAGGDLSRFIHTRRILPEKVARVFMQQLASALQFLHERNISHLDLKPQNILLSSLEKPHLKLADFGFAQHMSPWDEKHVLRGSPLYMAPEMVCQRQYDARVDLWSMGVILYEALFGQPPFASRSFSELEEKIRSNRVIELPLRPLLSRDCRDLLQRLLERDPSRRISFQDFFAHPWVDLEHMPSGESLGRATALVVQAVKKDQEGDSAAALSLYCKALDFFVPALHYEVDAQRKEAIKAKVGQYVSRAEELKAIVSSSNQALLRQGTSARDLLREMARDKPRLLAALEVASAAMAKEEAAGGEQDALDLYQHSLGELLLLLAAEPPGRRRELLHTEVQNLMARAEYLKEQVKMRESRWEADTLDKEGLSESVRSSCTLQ
Experimental: as §1

PAK3(h) = PAK3(h) (Homo sapiens (Human), UniProt O75914)
Experimental: as §1

SGK3(h) = SGK3(h) (Homo sapiens (Human), UniProt Q96BR1)
SGK3(h), sequence (Q96BR1 whole entry): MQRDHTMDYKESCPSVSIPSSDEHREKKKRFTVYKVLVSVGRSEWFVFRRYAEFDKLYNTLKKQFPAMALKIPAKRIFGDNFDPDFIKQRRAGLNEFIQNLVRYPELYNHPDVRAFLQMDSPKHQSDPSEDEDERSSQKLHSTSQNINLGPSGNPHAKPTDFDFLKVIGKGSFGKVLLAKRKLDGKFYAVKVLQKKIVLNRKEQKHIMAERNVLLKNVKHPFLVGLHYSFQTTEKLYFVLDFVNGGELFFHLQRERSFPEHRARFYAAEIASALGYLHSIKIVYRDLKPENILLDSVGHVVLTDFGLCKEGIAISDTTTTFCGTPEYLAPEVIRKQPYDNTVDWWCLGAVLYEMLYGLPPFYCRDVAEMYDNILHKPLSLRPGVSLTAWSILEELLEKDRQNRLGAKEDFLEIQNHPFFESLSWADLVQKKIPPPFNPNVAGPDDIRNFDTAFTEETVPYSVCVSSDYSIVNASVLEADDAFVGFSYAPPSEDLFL
Experimental: as §1

BTK(R28H)(h) = BTK(R28H)(h) (Homo sapiens (Human), UniProt Q06187, R28H)
Experimental: as §1

PKCβII(h) = PKCβII(h) (Homo sapiens (Human), UniProt P05771)
Experimental: as §1

MEKK3(h) = MEKK3(h) (Homo sapiens (Human), UniProt Q99759)
Experimental: as §1

mTOR/FKBP12(h) = mTOR/FKBP12(h) (Homo sapiens (Human), UniProt P42345)
Experimental: as §1

Lyn(h) = Lyn(h) (Homo sapiens (Human), UniProt P07948)
Experimental: as §1

TTBK2(h) = TTBK2(h) (Homo sapiens (Human), UniProt Q6IQ55)
Experimental: as §1

Abl(T315I)(h) = Abl(T315I)(h) (Homo sapiens (Human), UniProt P00519, T315I)
Experimental: as §1

Plk3(h) = Plk3(h) (Homo sapiens (Human), UniProt Q9H4B4)
Experimental: as §1

ACK1(h) = ACK1(h) (Homo sapiens (Human), UniProt Q07912)
Experimental: as §1

CLK3(h) = CLK3(h) (Homo sapiens (Human), UniProt P49761)
CLK3(h), sequence (P49761 whole entry): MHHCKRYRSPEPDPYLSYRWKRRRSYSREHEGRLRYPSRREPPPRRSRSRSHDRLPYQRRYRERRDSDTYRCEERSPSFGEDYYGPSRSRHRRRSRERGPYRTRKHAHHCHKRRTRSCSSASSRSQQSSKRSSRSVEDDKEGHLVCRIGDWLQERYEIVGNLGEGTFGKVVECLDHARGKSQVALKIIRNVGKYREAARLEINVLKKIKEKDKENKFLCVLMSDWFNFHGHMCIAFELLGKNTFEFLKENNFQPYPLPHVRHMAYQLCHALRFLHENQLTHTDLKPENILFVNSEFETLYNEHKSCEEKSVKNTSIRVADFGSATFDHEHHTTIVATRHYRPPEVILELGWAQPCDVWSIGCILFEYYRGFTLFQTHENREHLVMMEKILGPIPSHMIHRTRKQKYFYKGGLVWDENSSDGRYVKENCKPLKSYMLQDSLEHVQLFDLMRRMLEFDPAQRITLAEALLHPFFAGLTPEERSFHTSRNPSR
Experimental: as §1

[1] = target: PI3 Kinase (p110b/p85a)(m) (Mus musculus (Mouse), UniProt Q8BTI9)
Experimental: as §1

TAO1(h) = TAO1(h) (Homo sapiens (Human), UniProt Q7L7X3)
Experimental: as §1

MOK(h) = MOK(h) (Homo sapiens (Human), UniProt Q9UQ07)
Experimental: as §1

SIK(h) = SIK(h) (Homo sapiens (Human), UniProt P57059)
Experimental: as §1

PAK2(h) = PAK2(h) (Homo sapiens (Human), UniProt Q13177)
Experimental: as §1

GRK3(h) = GRK3(h) (Homo sapiens (Human), UniProt P35626)
Experimental: as §1

CLK1(h) = CLK1(h) (Homo sapiens (Human), UniProt P49759)
Experimental: as §1

ICK(h) = ICK(h) (Homo sapiens (Human), UniProt Q9UPZ9)
Experimental: as §1

ULK2(h) = ULK2(h) (Homo sapiens (Human), UniProt Q8IYT8)
Experimental: as §1

DDR1(h) = DDR1(h) (Homo sapiens (Human), UniProt Q08345)
Experimental: as §1

LRRK2(h) = LRRK2(h) (Homo sapiens (Human), UniProt Q5S007)
LRRK2(h), sequence (Q5S007 whole entry): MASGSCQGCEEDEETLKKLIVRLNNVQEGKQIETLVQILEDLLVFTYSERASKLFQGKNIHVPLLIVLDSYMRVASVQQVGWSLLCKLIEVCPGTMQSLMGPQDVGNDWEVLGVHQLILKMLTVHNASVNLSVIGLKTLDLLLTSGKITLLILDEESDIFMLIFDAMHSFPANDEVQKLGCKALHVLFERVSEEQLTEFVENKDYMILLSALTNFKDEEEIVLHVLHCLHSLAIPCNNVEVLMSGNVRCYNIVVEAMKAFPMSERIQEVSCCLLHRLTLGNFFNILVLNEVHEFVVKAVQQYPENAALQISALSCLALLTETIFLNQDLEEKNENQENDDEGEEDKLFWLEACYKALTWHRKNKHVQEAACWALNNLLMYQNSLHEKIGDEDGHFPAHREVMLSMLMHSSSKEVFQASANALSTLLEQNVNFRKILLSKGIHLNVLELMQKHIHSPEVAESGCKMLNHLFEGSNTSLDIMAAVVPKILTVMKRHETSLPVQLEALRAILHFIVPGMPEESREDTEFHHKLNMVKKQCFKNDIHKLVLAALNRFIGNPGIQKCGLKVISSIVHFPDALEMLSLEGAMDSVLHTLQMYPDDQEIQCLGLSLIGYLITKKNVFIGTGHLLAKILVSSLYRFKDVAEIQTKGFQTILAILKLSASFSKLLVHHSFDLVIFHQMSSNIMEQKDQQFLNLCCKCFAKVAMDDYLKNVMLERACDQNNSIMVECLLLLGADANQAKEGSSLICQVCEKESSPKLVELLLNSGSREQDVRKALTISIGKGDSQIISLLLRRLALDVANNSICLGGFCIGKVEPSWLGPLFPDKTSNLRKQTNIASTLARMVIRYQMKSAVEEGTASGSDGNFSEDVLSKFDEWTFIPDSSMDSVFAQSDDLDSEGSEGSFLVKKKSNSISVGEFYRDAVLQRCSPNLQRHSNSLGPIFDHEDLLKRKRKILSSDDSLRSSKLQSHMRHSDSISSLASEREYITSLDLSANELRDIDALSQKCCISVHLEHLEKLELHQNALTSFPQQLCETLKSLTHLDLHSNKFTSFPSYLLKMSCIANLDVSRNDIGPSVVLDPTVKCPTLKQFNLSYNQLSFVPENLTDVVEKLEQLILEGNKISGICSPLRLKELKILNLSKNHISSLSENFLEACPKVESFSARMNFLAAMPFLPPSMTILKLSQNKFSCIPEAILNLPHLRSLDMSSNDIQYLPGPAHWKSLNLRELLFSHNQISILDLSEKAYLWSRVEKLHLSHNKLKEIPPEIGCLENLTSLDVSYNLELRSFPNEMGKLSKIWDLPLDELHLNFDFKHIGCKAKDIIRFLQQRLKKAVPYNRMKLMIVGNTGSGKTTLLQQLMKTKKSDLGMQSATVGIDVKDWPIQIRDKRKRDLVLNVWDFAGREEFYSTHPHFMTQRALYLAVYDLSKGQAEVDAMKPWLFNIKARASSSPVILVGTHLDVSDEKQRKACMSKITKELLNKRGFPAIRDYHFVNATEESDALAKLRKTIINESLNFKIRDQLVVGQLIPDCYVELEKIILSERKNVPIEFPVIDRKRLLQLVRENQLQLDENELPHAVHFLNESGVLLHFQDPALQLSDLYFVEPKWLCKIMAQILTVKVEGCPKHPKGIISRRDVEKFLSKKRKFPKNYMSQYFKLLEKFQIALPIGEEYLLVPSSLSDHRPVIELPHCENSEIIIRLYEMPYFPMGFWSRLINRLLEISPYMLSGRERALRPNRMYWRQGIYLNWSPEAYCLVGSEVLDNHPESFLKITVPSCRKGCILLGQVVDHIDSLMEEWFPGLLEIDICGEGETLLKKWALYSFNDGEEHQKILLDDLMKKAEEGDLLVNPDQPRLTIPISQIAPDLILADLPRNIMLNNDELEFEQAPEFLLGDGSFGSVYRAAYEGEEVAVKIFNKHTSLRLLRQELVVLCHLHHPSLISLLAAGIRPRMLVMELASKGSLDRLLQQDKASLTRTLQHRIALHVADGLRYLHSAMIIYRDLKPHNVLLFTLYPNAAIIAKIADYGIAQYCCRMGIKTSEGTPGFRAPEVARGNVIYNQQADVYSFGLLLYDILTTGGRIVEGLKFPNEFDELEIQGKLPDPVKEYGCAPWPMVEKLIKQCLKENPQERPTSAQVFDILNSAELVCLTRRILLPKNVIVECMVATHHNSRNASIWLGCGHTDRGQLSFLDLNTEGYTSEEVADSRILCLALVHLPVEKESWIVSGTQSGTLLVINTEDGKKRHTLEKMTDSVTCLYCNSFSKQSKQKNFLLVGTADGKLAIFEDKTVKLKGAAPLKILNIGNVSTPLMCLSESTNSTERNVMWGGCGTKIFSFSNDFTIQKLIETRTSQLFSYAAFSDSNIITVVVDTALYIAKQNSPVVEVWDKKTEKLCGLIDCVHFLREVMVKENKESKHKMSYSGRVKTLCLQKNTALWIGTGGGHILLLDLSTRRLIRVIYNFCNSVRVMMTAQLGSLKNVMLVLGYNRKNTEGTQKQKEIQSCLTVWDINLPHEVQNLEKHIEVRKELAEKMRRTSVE
Experimental: as §1

STK32B(h) = STK32B(h) (Homo sapiens (Human), UniProt Q9NY57)
Experimental: as §1

DYRK1B(h) = DYRK1B(h) (Homo sapiens (Human), UniProt Q9Y463)
Experimental: as §1

Src(1-530)(h), sequence (P12931 whole entry, looked up): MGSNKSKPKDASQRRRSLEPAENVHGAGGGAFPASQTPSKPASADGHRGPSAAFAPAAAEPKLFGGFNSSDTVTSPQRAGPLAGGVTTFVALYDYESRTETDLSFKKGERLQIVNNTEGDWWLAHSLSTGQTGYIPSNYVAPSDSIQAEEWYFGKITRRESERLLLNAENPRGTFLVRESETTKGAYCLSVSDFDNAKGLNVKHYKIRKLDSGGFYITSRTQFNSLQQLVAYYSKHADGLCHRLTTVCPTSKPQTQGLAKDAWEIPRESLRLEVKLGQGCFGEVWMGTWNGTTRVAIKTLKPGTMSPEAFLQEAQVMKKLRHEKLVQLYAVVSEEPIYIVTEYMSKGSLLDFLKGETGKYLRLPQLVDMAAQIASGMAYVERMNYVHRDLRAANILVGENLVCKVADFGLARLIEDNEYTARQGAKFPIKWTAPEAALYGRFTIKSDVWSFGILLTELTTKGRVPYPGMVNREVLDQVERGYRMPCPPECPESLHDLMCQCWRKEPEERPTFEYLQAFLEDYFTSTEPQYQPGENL
Hck(h), sequence (P08631 whole entry): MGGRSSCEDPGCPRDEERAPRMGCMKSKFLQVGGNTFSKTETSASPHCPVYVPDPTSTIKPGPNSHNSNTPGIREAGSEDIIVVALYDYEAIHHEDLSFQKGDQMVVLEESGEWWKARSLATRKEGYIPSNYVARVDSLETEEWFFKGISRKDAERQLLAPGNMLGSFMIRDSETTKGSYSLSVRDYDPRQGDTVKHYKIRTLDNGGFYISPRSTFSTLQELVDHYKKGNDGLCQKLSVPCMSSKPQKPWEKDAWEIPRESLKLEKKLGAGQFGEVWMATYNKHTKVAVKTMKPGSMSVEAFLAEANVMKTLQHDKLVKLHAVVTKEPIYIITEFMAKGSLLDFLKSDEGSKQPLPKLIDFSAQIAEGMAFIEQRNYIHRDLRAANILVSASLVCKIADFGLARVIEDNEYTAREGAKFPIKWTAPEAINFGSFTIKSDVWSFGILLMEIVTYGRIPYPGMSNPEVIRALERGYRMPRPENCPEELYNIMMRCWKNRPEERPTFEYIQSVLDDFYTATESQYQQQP

C[C@H](NC(=O)c1c[nH]c2ccc(-c3ccc4nc(NC(=O)C5CC5)sc4c3)cc12)c1cccc(F)c1 [Compound 34, (S)-5-(2-(cyclopropanecarboxamido)benzo[d]thiazol-6-yl)-N-(1-(3-fluorophenyl)ethyl)-1H-indole-3-carboxamide]
Inhibition ratio (Hck(h)): 37%
Inhibition ratio (WNK1(h)): 10%
Inhibition ratio (Fgr(h)): 42%
Inhibition ratio (SGK2(h)): 2%
Inhibition ratio (Pyk2(h)): 45%
Inhibition ratio (Src(1-530)(h)): 54%
Inhibition ratio (CK2α1(h)): 7%
Inhibition ratio (B-Raf(V599E)(h)): 14%
Inhibition ratio (ULK3(h)): 30%
Inhibition ratio (PAK3(h)): −1%
Inhibition ratio (SGK3(h)): −1%
Inhibition ratio (BTK(R28H)(h)): 1%
Inhibition ratio (PKCβII(h)): 7%
Inhibition ratio (MEKK3(h)): 2%
Inhibition ratio (mTOR/FKBP12(h)): 10%
Inhibition ratio (Lyn(h)): 52%
Inhibition ratio (TTBK2(h)): 8%
Inhibition ratio (Abl(T315I)(h)): 101%
Inhibition ratio (Plk3(h)): 9%
Inhibition ratio (ACK1(h)): 35%
Inhibition ratio (CLK3(h)): 35%
Inhibition ratio [1]: 15%
Inhibition ratio (TAO1(h)): 24%
Inhibition ratio (MOK(h)): −15%
Inhibition ratio (SIK(h)): 21%
Inhibition ratio (PAK2(h)): 19%
Inhibition ratio (GRK3(h)): −1%
Inhibition ratio (CLK1(h)): 80%
Inhibition ratio (ICK(h)): 7%
Inhibition ratio (ULK2(h)): 13%
Inhibition ratio (DDR1(h)): 51%
Inhibition ratio (LRRK2(h)): 30%
Inhibition ratio (STK32B(h)): −2%
Inhibition ratio (DYRK1B(h)): 12%

C[C@H](NC(=O)c1cn(C)c2ccc(-c3ccn4nc(NC(=O)C5CC5)nc4c3)cc12)c1cccc(F)c1 [Compound 94, (S)-5-(2-(cyclopropanecarboxamido)-[1,2,4]triazolo[1,5-a]pyridin-7-yl)-N-(1-(3-fluorophenyl)ethyl)-1-methyl-1H-indole-3-carboxamide]
Inhibition ratio/% (Hck(h)): −8%
Inhibition ratio/% (WNK1(h)): 45%
Inhibition ratio/% (Fgr(h)): 8%
Inhibition ratio/% (SGK2(h)): −18%
Inhibition ratio/% (Pyk2(h)): −5%
Inhibition ratio/% (Src(1-530)(h)): 20%
Inhibition ratio/% (CK2α1(h)): 58%
Inhibition ratio/% (B-Raf(V599E)(h)): −10%
Inhibition ratio/% (ULK3(h)): 3%
Inhibition ratio/% (PAK3(h)): −19%
Inhibition ratio/% (SGK3(h)): 41%
Inhibition ratio/% (BTK(R28H)(h)): 77%
Inhibition ratio/% (PKCβII(h)): 10%
Inhibition ratio/% (MEKK3(h)): 14%
Inhibition ratio/% (mTOR/FKBP12(h)): 36%
Inhibition ratio/% (Lyn(h)): 55%
Inhibition ratio/% (TTBK2(h)): −16%
Inhibition ratio/% (Abl(T315I)(h)): 33%
Inhibition ratio/% (Plk3(h)): 12%
Inhibition ratio/% (ACK1(h)): 33%
Inhibition ratio/% (CLK3(h)): 35%
Inhibition ratio/% [1]: 10%
Inhibition ratio/% (TAO1(h)): 50%
Inhibition ratio/% (MOK(h)): −15%
Inhibition ratio/% (SIK(h)): 54%
Inhibition ratio/% (PAK2(h)): −14%
Inhibition ratio/% (GRK3(h)): −12%
Inhibition ratio/% (CLK1(h)): 80%
Inhibition ratio/% (ICK(h)): 52%
Inhibition ratio/% (ULK2(h)): 55%
Inhibition ratio/% (DDR1(h)): 21%
Inhibition ratio/% (LRRK2(h)): 10%
Inhibition ratio/% (STK32B(h)): 27%
Inhibition ratio/% (DYRK1B(h)): −1%

From patent US20230365546A1, “5-SUBSTITUTED INDOLE 3-AMIDE DERIVATIVES, PREPARATION METHOD AND USE THEREOF” (ORIGIANT PHARMACEUTICAL CO., LTD, priority 2020, published 2023)
